We go through 2 substances from US20210171948A1, “COMPOSITIONS AND METHODS FOR TARGETING GLYPICAN-2 IN THE TREATMENT OF CANCER” (Shepherd Therapeutics, Inc., priority 2019, published 2021).

What all share (format): cell-based
Data set [1] concerns SKNAS cells. Briefly: Topotecan IC50 in siRNA-transfected cells, Cell Titer Glo 2.0 viability (Example 10). The procedure: (§1) GPC2 mRNA expression was reduced and changes in cell viability were assessed in multiple neuroblastoma cell lines. Cells were transfected with either a control siRNA or with GPC2 siRNA sequences 5 or 7 from Table 7 using the RNAiMAX Lipofectamine kit (Invitrogen, Carlsbad, Calif.) as previously described in 96 wells for viability assays. Topotecan was added at increasing concentrations (0-5 uM) to transfected cells at 24 hours post transfection. Following a 72 hour incubation period, viability measurements were made using Cell Titer Glo 2.0.

Data set [2] relates to CHLA-90 cells. The data set is described as above. The procedure:
as §1

The next data set has as its system CHP212 cells. The description is as above. How it is done:
as §1

Data set [3] has as its system SK-N-BE2 cells. Described as above. How it is done:
as §1

In data set [4] the test system is SH-SY5Y cells. The description is as above. How it is done: as §1
Data set [5] deals with spheroids from CHP212, SKNAS, SK-N-BE2 and CHLA90 neuroblastoma cells. Briefly: Viability of established spheroid cultures after siRNA transfection (Example 11). Conditions: 96 hour following transfection; where GPC2 knockdown was observed (FIG. 7B). How it is done: The effect of siRNA mediated GPC2 mRNA knockdown was also assessed on established spheroid cultures. Spheroids were established by seeding cells in low attachment plates and culturing for 96 hours. Spheroids were transfected with either a scrambled control siRNA or with GPC2 siRNA of sequence 5 or 7 from Table 7, using the RNAiMAX Lipofectamine kit (Invitrogen, Carlsbad, Calif.) as previously described. At the 96 hour time point following transfection, the degree of GPC2 mRNA knockdown (FIG. 7A) as well as spheroid viability (FIG. 7B) was measured.

The test system of the next data set is COV362 cells. Briefly: Cisplatin IC50 in siRNA-transfected cells, Cell Titer Glo 2.0 viability (Example 5). How it is done:
(§2) GPC2 mRNA was reduced using the indicated siRNAs and changes in cell viability were assessed in multiple cancer cell lines, in combination with Cisplatin treatment. Cells were transfected with either a scrambled control siRNA or with GPC2 siRNA sequences 3 or 5 from Table 7 using the RNAiMAX Lipofectamine kit (Invitrogen, Carlsbad, Calif.), as previously described, in either in 96 well (for viability assays) or 6 well format (for total RNA). Cisplatin was added at increasing concentrations (0 to 30 uM) to transfected cells at 24 hours post transfection. Following a 72 hour incubation period, cell viability was measured using Cell Titer Glo 2.0. Total RNA samples were also isolated to measure knockdown efficiency.
For orientation: Cellular ATP, detected with luciferase, serves as a proxy for viable cell number.

A further data set has as its system RH41 cells. Described as above. Conditions: RH41 cells transfected with the labelled siRNA; cisplatin added 24 hours post transfection, 72 hour incubation. The procedure: as §2
For data set [6], the system named is SKNAS cells. Described as above. The procedure:
as §2

A further data set has as its system TC71 cells. Described as above. How it is done: as §2
The test system of data set [7] is CHLA-90 cells. The description is as above. How it is done:
as §2

Another data set deals with TC32 cells. The description is as above. The procedure:
as §2

The subject of data set [8] is CHLA-172 cells. The description is as above. The procedure: as §2
A further data set deals with RH30 cells. The data set is described as above. How it is done:
as §2

In data set [9] the test system is CHLA-136 cells. The data set is described as above. The procedure: as §2
The subject of data set [10] is SK-N-BE2 cells. The description is as above. Conditions: SK-N-BE2 cells transfected with the labelled siRNA; cisplatin added 24 hours post transfection, 72 hour incubation. The procedure:
as §2

The test system of data set [11] is KELLY cells. The description is as above. Conditions: KELLY cells transfected with the labelled siRNA; cisplatin added 24 hours post transfection, 72 hour incubation. How it is done:
as §2

Data set [12] deals with SH-SY5Y cells. The description is as above. Conditions: SH-SY5Y cells transfected with the labelled siRNA; cisplatin added 24 hours post transfection, 72 hour incubation. The procedure:
as §2

The next data set concerns SNU16 cells. The data set is described as above. How it is done: as §2
The subject of the next data set is GIST-T1 cells. The data set is described as above. Conditions: GIST-T1 cells transfected with the labelled siRNA; cisplatin added 24 hours post transfection, 72 hour incubation. How it is done:
as §2

The test system of data set [13] is SKNAS cells. As to the kind of experiment: Doxorubicin IC50 in siRNA-transfected cells, Cell Titer Glo viability (Example 8). The procedure:
(§3) GPC2 mRNA expression was reduced and changes in cell viability were assessed in multiple neuroblastoma cell lines. Cells were transfected with either a control siRNA or with GPC-2 siRNA sequences 3, 5 or 7 from Table 7 using the RNAiMAX Lipofectamine kit (Invitrogen, Carlsbad, Calif.) as previously described in 96 wells for viability assays. Doxorubicin was added at increasing concentrations (0-5 uM) to transfected cells at 24 hours post transfection. Following a 72 hour incubation period, viability measurements were made using Cell Titer Glo.

The subject of data set [14] is CHLA-172 cells. The data set is described as above. Conditions: CHLA-172 cells transfected with the labelled siRNA; doxorubicin added 24 hours post transfection, 72 hour incubation. The procedure:
as §3

Data set [15] has as its system CHLA-136 cells. Described as above. Conditions: CHLA-136 cells transfected with the labelled siRNA; doxorubicin added 24 hours post transfection, 72 hour incubation. How it is done:
as §3

Data set [16] relates to KELLY cells. Described as above. How it is done: as §3

Strand notation (5' to 3'): a small letter for the sugar, then the base; units joined by * are phosphorothioate-linked, units joined directly phosphodiester-linked; [ ] holds rarer units or linkages, { } end groups; capitals alone tell only the bases. d = 2'-deoxy (DNA); r = 2'-OH (RNA)

As to “GPC2 siRNA 7: siRNA duplex: sense CUCCUUUCUGGUUCACACA[dT][dT] (SEQ ID NO: 215), anti-sense UGUGUGAACCAGAAAGGAG[dT][dT] (SEQ ID NO: 216) (sense rCrUrCrCrUrUrUrCrUrGrGrUrUrCrArCrArCrAdTdT; antisense rUrGrUrGrUrGrArArCrCrArGrArArArGrGrArGdTdT; listed as Homo sapiens)”, the “Data Summary: effect of knockdown on sensitivity to topotecan” value with SKNAS cells [1] (SKNAS) was “increases sensitivity to topotecan”; in the data set with CHLA-90 cells [2] (CHLA-90), “not increase sensitivity to topotecan”; in the data set with CHP212 cells (CHP212), “not increase sensitivity to topotecan”; with SK-N-BE2 cells [3] (SK-N-BE2), “not increase sensitivity to topotecan”; in the data set on SH-SY5Y cells [4] (SH-SY5Y), “not increase sensitivity to topotecan”. Moreover, the IC50 was 20 nM with SKNAS cells [1] (SKNAS cells transfected with the labelled siRNA, topotecan added 24 hours post transfection, 72 hour incubation); 140 nM in the data set with CHLA-90 cells [2] (CHLA-90 cells transfected with the labelled siRNA, topotecan added 24 hours post transfection, 72 hour incubation); 10 nM in the data set with CHP212 cells (CHP212 cells transfected with the labelled siRNA, topotecan added 24 hours post transfection, 72 hour incubation); 10 nM with SK-N-BE2 cells [3] (SK-N-BE2 cells transfected with the labelled siRNA, topotecan added 24 hours post transfection, 72 hour incubation); 40 nM in the data set with SH-SY5Y cells [4] (SH-SY5Y cells transfected with the labelled siRNA, topotecan added 24 hours post transfection, 72 hour incubation). In addition, in data set [5], the “Viability of established spheroids” value is “a decrease in spheroid viability was also seen”.
Turning to “GPC2 siRNA 3: siRNA duplex: sense CCUGCUUGGACCUCGAUAA[dT][dT] (SEQ ID NO: 207), anti-sense UUAUCGAGGUCCAAGCAGG[dT][dT] (SEQ ID NO: 208) (sense CCUGCUUGGACCUCGAUAANN; antisense UUAUCGAGGUCCAAGCAGGNN; 3' dTdT overhangs, chemistry not fully specified; listed as Homo sapiens)”, the “Data Summary: effect of knockdown on sensitivity to cisplatin” value in the data set with COV362 cells (COV362) is given as “does not increase”; in the data set with SKNAS cells [6] (SKNAS), “increases sensitivity to”; with TC71 cells (TC71) it was “does not increase”; in the data set with CHLA-90 cells [7] (CHLA-90), “increases sensitivity to”; with TC32 cells (TC32), “does not increase”; in the data set with CHLA-172 cells [8] (CHLA-172) it was “does not increase”. Besides, the “Data Summary: effect of knockdown on sensitivity to cisplatin” value in the data set on RH30 cells (RH30) was “does not increase”; in the data set with CHLA-136 cells [9] (CHLA-136), “increases sensitivity to”; with SNU16 cells (SNU16), “does not increase”. For the same substance, the IC50 in the data set with COV362 cells (COV362 cells transfected with the labelled siRNA, cisplatin added 24 hours post transfection, 72 hour incubation) was determined as 6400 nM; in the data set with RH41 cells, 3200 nM; in the data set with SKNAS cells [6] (SKNAS cells transfected with the labelled siRNA, cisplatin added 24 hours post transfection, 72 hour incubation), 20000 nM; with TC71 cells (TC71 cells transfected with the labelled siRNA, cisplatin added 24 hours post transfection, 72 hour incubation), 1300 nM; with CHLA-90 cells [7] (CHLA-90 cells transfected with the labelled siRNA, cisplatin added 24 hours post transfection, 72 hour incubation) it was 15000 nM; in the data set with TC32 cells (TC32 cells transfected with the labelled siRNA, cisplatin added 24 hours post transfection, 72 hour incubation), 2300 nM. The IC50 with CHLA-172 cells [8] (CHLA-172 cells transfected with the labelled siRNA, cisplatin added 24 hours post transfection, 72 hour incubation) was 16000 nM; in the data set on RH30 cells (RH30 cells transfected with the labelled siRNA, cisplatin added 24 hours post transfection, 72 hour incubation), 2100 nM; in the data set on CHLA-136 cells [9] (CHLA-136 cells transfected with the labelled siRNA, cisplatin added 24 hours post transfection, 72 hour incubation), 11000 nM; in the data set on SK-N-BE2 cells [10], 8000 nM; with KELLY cells [11], 21700 nM; with SH-SY5Y cells [12], 17600 nM. Besides, the concentration for half-maximal inhibition (IC50) in the data set on SNU16 cells (SNU16 cells transfected with the labelled siRNA, cisplatin added 24 hours post transfection, 72 hour incubation) was 16000 nM; with GIST-T1 cells, 13000 nM; with SKNAS cells [13] (SKNAS cells transfected with the labelled siRNA, doxorubicin added 24 hours post transfection, 72 hour incubation), 40 nM; with CHLA-172 cells [14], 2000 nM; in the data set on CHLA-136 cells [15], 170 nM; in the data set with KELLY cells [16] (KELLY cells transfected with the labelled siRNA, doxorubicin added 24 hours post transfection, 72 hour incubation), 70 nM. Moreover, the “Data Summary: effect of knockdown on sensitivity to doxorubicin” value in the data set with SKNAS cells [13] (SKNAS) was “increases sensitivity to”; in the data set with KELLY cells [16] (KELLY), “not increase sensitivity”.

For orientation: IC50 means the concentration at which inhibition is half-maximal.
